Data from article PMC6222544, “Fragment-Based Lead Generation of 5-Phenyl-1H-pyrazole-3-carboxamide Derivatives as Leads for Potent Factor Xia Inhibitors” (Molecules : A Journal of Synthetic Chemistry and Natural …, 2018).
Read-outs that look alike come from different tables or passages of the source.

Legend:
[1] = biological target: T1, human FXIa (Homo sapiens, UniProt P03951); assay: Inhibition of FXIa in vitro (chromogenic substrate assay); format: biochemical
T1 construct: purchased Haematologic Technologies, Essex Junction, VT, USA
T1 sequence (P03951 388-625 limits assumed): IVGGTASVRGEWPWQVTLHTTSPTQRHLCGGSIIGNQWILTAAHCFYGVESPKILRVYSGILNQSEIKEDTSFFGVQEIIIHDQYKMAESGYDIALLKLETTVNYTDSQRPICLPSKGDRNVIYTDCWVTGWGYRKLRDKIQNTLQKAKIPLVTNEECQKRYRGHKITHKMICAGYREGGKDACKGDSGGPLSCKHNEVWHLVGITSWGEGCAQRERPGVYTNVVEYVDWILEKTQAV
T1 sequence (P03951 19-387 partner limits assumed): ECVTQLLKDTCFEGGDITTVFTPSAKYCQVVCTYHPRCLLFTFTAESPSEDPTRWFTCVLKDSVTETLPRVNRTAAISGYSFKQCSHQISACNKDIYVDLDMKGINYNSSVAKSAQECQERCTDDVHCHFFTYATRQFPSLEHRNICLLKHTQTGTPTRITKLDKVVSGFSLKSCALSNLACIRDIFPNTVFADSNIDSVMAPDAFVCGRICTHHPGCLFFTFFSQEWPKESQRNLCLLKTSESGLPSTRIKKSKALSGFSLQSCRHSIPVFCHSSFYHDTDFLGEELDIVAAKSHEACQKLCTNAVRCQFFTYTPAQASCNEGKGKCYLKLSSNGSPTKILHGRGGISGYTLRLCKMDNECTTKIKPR
Description: The negative controlwas composed of the same mixed solutions except replacing test compound with DMSO. […] The IC50 was calculated by IBM SPSS Statistics 22.0 (IBM Inc., North Castle, NY, USA) and the Probit function in it. IC50 values were converted to Ki values by the followingrelationship:Ki = IC50/(1 + [S]/Km)

[2] = Table 1 values, read-out: FXIa inhibitory potency (Ki)
[3] = human FXIa, chromogenic substrate BIOPHEN CS-21(66), 37 °C, pH 7.4, Ki = IC50/(1 + [S]/Km), read-out: Ki

SMILES	Ki [1, 2]	melting point	Ki [1, 3]
O=C(O)c1ccc(NC(=O)[C@H](Cc2ccccc2)NC(=O)c2cc(-c3cc(Cl)ccc3F)[nH]n2)cc1 [Compound 7h, (S)-4-(2-(5-(5-Chloro-2-fluorophenyl)-1H-pyrazole-3-carboxamido)-3-phenylpropanamido)benzoic acid]		179 to 181 °C (dec.)	> 84.5 µM
Cc1c(C(=O)N[C@@H](Cc2ccccc2)C(=O)Nc2ccc(C(=O)O)cc2)n[nH]c1-c1cccc(Cl)c1 [Compound 7m, (S)-4-(2-(5-(3-Chlorophenyl)-4-methyl-1H-pyrazole-3-carboxamido)-3-phenylpropanamido)benzoic acid]		164 to 166 °C (dec.)	37.1 µM
O=C(O)c1ccc(NC(=O)[C@H](Cc2ccccc2)NC(=O)c2cc(-c3c(F)cccc3F)[nH]n2)cc1 [Compound 7j, (S)-4-(2-(5-(2,6-Difluorophenyl)-1H-pyrazole-3-carboxamido)-3-phenylpropanamido)benzoic acid]		205 to 207 °C (dec.)	> 84.5 µM
O=C(O)c1ccc(NC(=O)[C@H](Cc2ccccc2)NC(=O)c2cc(-c3c(F)cc(Cl)cc3F)[nH]n2)cc1 [Compound 7l, (S)-4-(2-(5-(4-Chloro-2,6-difluorophenyl)-1H-pyrazole-3-carboxamido)-3-phenylpropanamido)benzoic acid]		123 to 125 °C (dec.)	> 84.5 µM
O=C(O)c1ccc(NC(=O)[C@H](Cc2ccccc2)NC(=O)c2cc(-c3c(F)ccc(Cl)c3F)[nH]n2)cc1 [Compound 7k, (S)-4-(2-(5-(3-Chloro-2,6-difluorophenyl)-1H-pyrazole-3-carboxamido)-3-phenylpropanamido)benzoicacid]		129 to 131 °C (dec.)	28.9 µM
O=C(O)c1ccc(NC(=O)[C@H](Cc2ccccc2)NC(=O)c2cc(-c3ccc(Cl)cc3)[nH]n2)cc1 [Compound 7e, (S)-4-(2-(5-(4-Chlorophenyl)-1H-pyrazole-3-carboxamido)-3-phenylpropanamido)benzoic acid]		174 to 176 °C (dec.)	> 84.5 µM
O=C(O)c1ccc(NC(=O)[C@H](Cc2ccccc2)NC(=O)c2cc(-c3c(F)cccc3Cl)[nH]n2)cc1 [Compound 7i, (S)-4-(2-(5-(2-Chloro-6-fluorophenyl)-1H-pyrazole-3-carboxamido)-3-phenylpropanamido)benzoic acid]		203 to 205 °C (dec.)	> 84.5 µM
O=C(O)c1ccc(NC(=O)[C@H](Cc2ccccc2)NC(=O)c2cc(-c3cccc(Cl)c3)[nH]n2)cc1 [Compound 7a, (S)-4-(2-(5-(3-Chlorophenyl)-1H-pyrazole-3-carboxamido)-3-phenylpropanamido)benzoic acid]		147 to 149 °C (dec.)	46.7 µM
O=C(O)c1cc2cc(NC(=O)[C@H](Cc3ccccc3)NC(=O)c3cc(-c4cccc(Cl)c4F)n[nH]3)ccc2[nH]1 [Compound 7o, (S)-5-(2-(3-(3-Chloro-2-fluorophenyl)-1H-pyrazole-5-carboxamido)-3-phenylpropanamido)-1H-indole-2-carboxylic acid]	1.97 µM	172 to 174 °C (dec.)	
O=C(O)c1ccc(NC(=O)[C@H](Cc2ccccc2)NC(=O)c2cc(-c3ccc(Cl)cc3F)[nH]n2)cc1 [Compound 7g, (S)-4-(2-(5-(4-Chloro-2-fluorophenyl)-1H-pyrazole-3-carboxamido)-3-phenylpropanamido)benzoic acid]		143 to 145 °C (dec.)	> 84.5 µM
O=C(O)c1cc2cc(NC(=O)[C@H](Cc3ccccc3)NC(=O)c3cc(-c4c(F)ccc(Cl)c4F)n[nH]3)ccc2[nH]1 [Compound 7p, (S)-5-(2-(3-(3-Chloro-2,6-difluorophenyl)-1H-pyrazole-5-carboxamido)-3-phenylpropanamido)-1H-indole-2-carboxylic acid]		164 to 166 °C (dec.)	8.4 µM
O=C(O)c1ccc(NC(=O)[C@H](Cc2ccccc2)NC(=O)c2cc(-c3ccccc3)[nH]n2)cc1 [Compound 7b, (S)-4-(3-Phenyl-2-(5-phenyl-1H-pyrazole-3-carboxamido)propanamido)benzoic acid]		137 to 139 °C (dec.)	> 84.5 µM
O=C(O)c1ccc(NC(=O)[C@H](Cc2ccccc2)NC(=O)c2cc(-c3ccccc3F)[nH]n2)cc1 [Compound 7c, (S)-4-(2-(5-(2-Fluorophenyl)-1H-pyrazole-3-carboxamido)-3-phenylpropanamido)benzoic acid]		86 to 88 °C (dec.)	> 84.5 µM
O=C(O)c1ccc(NC(=O)[C@H](Cc2ccccc2)NC(=O)c2cc(-c3ccccc3Cl)[nH]n2)cc1 [Compound 7d, (S)-4-(2-(5-(2-Chlorophenyl)-1H-pyrazole-3-carboxamido)-3-phenylpropanamido)benzoic acid]		92 to 94 °C (dec.)	> 84.5 µM
Cc1c(C(=O)N[C@@H](Cc2ccccc2)C(=O)Nc2ccc3[nH]c(C(=O)O)cc3c2)n[nH]c1-c1cccc(Cl)c1 [Compound 7q, (S)-5-(2-(3-(3-Cchlorophenyl)-4-methyl-1H-pyrazole-5-carboxamido)-3-phenylpropanamido)-1H-indole-2-carboxylic acid]		154 to 156 °C (dec.)	8.94 µM
O=C(O)c1ccc(NC(=O)[C@H](Cc2ccccc2)NC(=O)c2cc(-c3cccc(Cl)c3F)[nH]n2)cc1 [Compound 7f, (S)-4-(2-(5-(3-Chloro-2-fluorophenyl)-1H-pyrazole-3-carboxamido)-3-phenylpropanamido)benzoic acid]		185 to 187 °C (dec.)	29.3 µM

Next, values leading:

Ki [1, 2]	melting point	Ki [1, 3]	SMILES
1.66 µM	174 to 176 °C (dec.)		O=C(O)c1cc2cc(NC(=O)[C@H](Cc3cccc(F)c3)NC(=O)c3cc(-c4cccc(Cl)c4F)n[nH]3)ccc2[nH]1 [Compound 7t, (S)-5-(2-(3-(3-Chloro-2-fluorophenyl)-1H-pyrazole-5-carboxamido)-3-(3-fluorophenyl)propanamido)-1H-indole-2-carboxylic acid]
81.2 µM			CC(=O)N1CCN(C(=O)C[C@H](NC(=O)c2cc(-c3cccc(Cl)c3F)[nH]n2)C(=O)Nc2ccc3[nH]c(C(=O)O)cc3c2)CC1 [Compound 7x, (S)-5-(4-(4-Acetylpiperazin-1-yl)-2-(5-(3-chloro-2-fluorophenyl)-1H-pyrazole-3-carboxamido)-4-oxobutanamido)-1H-indole-2-carboxylic acid]
3.52 µM	175 to 177 °C (dec.)		O=C(O)c1cc2cc(NC(=O)[C@H](Cc3cccnc3)NC(=O)c3cc(-c4cccc(Cl)c4F)n[nH]3)ccc2[nH]1 [Compound 7v, (S)-5-(2-(3-(3-Chloro-2-fluorophenyl)-1H-pyrazole-5-carboxamido)-3-(pyridin-3-yl)propanamido)-1H-indole-2-carboxylic acid]
	203 to 205 °C (dec.)	1.94 µM	CN1CCN(C(=O)Nc2ccc(C[C@H](NC(=O)c3cc(-c4cccc(Cl)c4F)[nH]n3)C(=O)Nc3ccc4[nH]c(C(=O)O)cc4c3)cc2)CC1 [Compound 7zb, (S)-5-(2-(5-(3-Chloro-2-fluorophenyl)-1H-pyrazole-3-carboxamido)-3-(4-(4-methylpiperazine-1-carboxamido)phenyl)propanamido)-1H-indole-2-carboxylic acid]
8.99 µM	192 to 194 °C (dec.)		O=C(O)c1cc2cc(NC(=O)[C@H](Cc3ccccn3)NC(=O)c3cc(-c4cccc(Cl)c4F)n[nH]3)ccc2[nH]1 [Compound 7w, (S)-5-(2-(3-(3-Chloro-2-fluorophenyl)-1H-pyrazole-5-carboxamido)-3-(pyridin-2-yl)propanamido)-1H-indole-2-carboxylic acid]
	200 to 202 °C (dec.)	4.82 µM	O=C(N[C@@H](Cc1ccc(N2CCOCC2=O)cc1)C(=O)Nc1ccc2[nH]c(C(=O)O)cc2c1)c1cc(-c2cccc(Cl)c2F)[nH]n1 [Compound 7zc, (S)-5-(2-(5-(3-Chloro-2-fluorophenyl)-1H-pyrazole-3-carboxamido)-3-(4-(3-oxomorpholino)phenyl)-propanamido)-1H-indole-2-carboxylic acid]
13.3 µM	199 to 201 °C (dec.)		O=C(O)c1cc2cc(NC(=O)[C@H](Cc3ccncc3)NC(=O)c3cc(-c4cccc(Cl)c4F)n[nH]3)ccc2[nH]1 [Compound 7u, (S)-5-(2-(3-(3-Chloro-2-fluorophenyl)-1H-pyrazole-5-carboxamido)-3-(pyridin-4-yl)propanamido)-1H-indole-2-carboxylic acid]
	209 to 211 °C (dec.)	4.1 µM	Nc1ccc(C[C@H](NC(=O)c2cc(-c3cccc(Cl)c3F)[nH]n2)C(=O)Nc2ccc3[nH]c(C(=O)O)cc3c2)cc1 [Compound 7z, (S)-5-(3-(4-Aminophenyl)-2-(5-(3-chloro-2-fluorophenyl)-1H-pyrazole-3-carboxamido)propanamido)-1H-indole-2-carboxylic acid]
64 µM	175 to 177 °C (dec.)		O=C(O)c1cc2cc(NC(=O)[C@H](CC(=O)N3CCOCC3)NC(=O)c3cc(-c4cccc(Cl)c4F)n[nH]3)ccc2[nH]1 [Compound 7y, (S)-5-(2-(3-(3-Chloro-2-fluorophenyl)-1H-pyrazole-5-carboxamido)-4-morpholino-4-oxobutanamido)-1H-indole-2-carboxylic acid]
0.93 µM	186 to 188 °C (dec.)		O=C(O)c1cc2cc(NC(=O)[C@H](Cc3ccc(F)cc3)NC(=O)c3cc(-c4cccc(Cl)c4F)n[nH]3)ccc2[nH]1 [Compound 7s, (S)-5-(2-(3-(3-Chloro-2-fluorophenyl)-1H-pyrazole-5-carboxamido)-3-(4-fluorophenyl)propanamido)-1H-indole-2-carboxylic acid]
